Like-named read-outs stand apart in the source and are kept apart here.
Columns and labels:
[1] = target: T1, recombinant human GST-SYK (Homo sapiens, UniProt P43405); experiment: Homogeneous Time-Resolved Fluorescence (HTRF) Assay for the Recombinant Human Syk Enzyme; format: biochemical; conditions: GST-hSYK 5 pM, ATP 25 μM, 10-dose titration
T1 construct: purchased Carna Biosciences 08-176
Method: Homogeneous Time-Resolved Fluorescence (HTRF) Assay for the Recombinant Human Syk Enzyme
A recombinant GST-hSYK fusion protein was used to measure potency of compounds to inhibit human Syk activity. […] Final volume of the reaction was 10 μL. Phosphorylation of the peptide was allowed to proceed for 45′ at room temperature. To quench the reaction and detect the phosphorylated product, 2 nM of a Europium-anti-phosphotyrosine antibody (Perkin Elmer #AD0161) and 70 nM SA-APC (Perkin-Elmer #CR130-100) were added together in 15 mM Tris pH 7.5, 40 mM EDTA, 0.01% tween 20. Final volume of the quenching solution was 10 μl. The resulting HTRF signal was measured after 30 minutes on an EnVision (Perkin-Elmer) reader using a time-resolved fluorescence protocol.

PGD2 = conditions: intranasal, phase I/II study, allergic rhinitis; cited from earlier work
[2] = phase II clinical trial, allergic rhinitis; cited from earlier work

SMILES | IC50 ([1]; read-out: rhSYK Activity) | also measured
COc1cccc(Nc2cc(N[C@@H]3CCCC[C@@H]3N)ccc2C(N)=O)n1 (relative stereo) [Example 1.2, rel-4-{[(1R,2S)-2-aminocyclohexyl]amino}-2-[(6-methoxypyridin-2-yl)amino]benzamide] | 1.5 to 15 nM | –
NC(=O)c1ccc(N[C@@H]2CCCC[C@@H]2N)cc1Nc1cccc(-n2cccn2)n1 (relative stereo) [Example 1.3, rel-4-{[(1R,2S)-2-aminocyclohexyl]amino}-2-{[6-(1H-pyrazol-1-yl)pyridin-2-yl]amino}benzamide] | 1.5 to 15 nM | –
Cc1nc(Nc2cc(N[C@@H]3CCCC[C@@H]3N)ccc2C(N)=O)ccc1F (relative stereo) [Example 1.4, rel-4-{[(1R,2S)-2-aminocyclohexyl]amino}-2-[(5-fluoro-6-methylpyridin-2-yl)amino]benzamide] | 15 to 50 nM | IC50 ([1]; read-out: IC50): 23 nM
NC(=O)c1ccc(N[C@@H]2CCCC[C@@H]2N)cc1Nc1cccc(N2CCOCC2)n1 (relative stereo) [Example 1.5, rel-4-{[(1R,2S)-2-aminocyclohexyl]amino}-2-[(6-morpholin-4-ylpyridin-2-yl)amino]benzamide] | 15 to 50 nM | –
CCOc1cccc(Nc2cc(N[C@@H]3CCCC[C@@H]3N)ccc2C(N)=O)n1 (relative stereo) [Example 1.6, rel-4-{[(1R,2S)-2-aminocyclohexyl]amino}-2-[(6-ethoxypyridin-2-yl)amino]benzamide] | 1.5 to 15 nM | –
NC(=O)c1ccc(N[C@@H]2CCCC[C@@H]2N)cc1Nc1ccc2ccccc2n1 (relative stereo) [Example 1.15, rel-4-{[(1R,2S)-2-aminocyclohexyl]amino}-2-(quinolin-2-ylamino)benzamide] | 1.5 to 15 nM | –
NC(=O)c1ccc(N[C@@H]2CCCC[C@@H]2N)cc1Nc1cccc(-n2cccc2)n1 (relative stereo) [Example 1.17, rel-4-{[(1R,2S)-2-aminocyclohexyl]amino}-2-{[6-(1H-pyrrol-1-yl)pyridin-2-yl]amino}benzamide] | < 1.5 nM | –
Oc1cccc(Nc2ncc(F)c(Nc3cccc(O)c3)n2)c1 [Example R112] | – | change in PGD2 (PGD2): statistically significant decrease; clinical safety (PGD2): safe across a range of indicators; efficacy versus placebo [2]: lack of efficacy versus placebo

Further lines, with some results ahead:

IC50 ([1]; read-out: rhSYK Activity) | SMILES | also measured
< 1.5 nM | NC(=O)c1ccc(N[C@@H]2CCCC[C@@H]2N)cc1Nc1cccc(-c2ccccc2)n1 (relative stereo) [Example 1.7, rel-4-{[(1R,2S)-2-aminocyclohexyl]amino}-2-[(6-phenylpyridin-2-yl)amino]benzamide] | –
< 1.5 nM | NC(=O)c1ccc(N[C@@H]2CCCC[C@@H]2N)cc1Nc1cccc(-c2ccncc2)n1 (relative stereo) [Example 1.8, rel-4-{[(1R,2S)-2-aminocyclohexyl]amino}-2-(2,4′-bipyridin-6-ylamino)benzamide] | –
< 1.5 nM | COc1cccc(-c2cccc(Nc3cc(N[C@@H]4CCCC[C@@H]4N)ccc3C(N)=O)n2)c1 (relative stereo) [Example 1.9, rel-4-{[(1R,2S)-2-aminocyclohexyl]amino}-2-{[6-(3-methoxyphenyl)pyridin-2-yl]amino}benzamide] | IC50 ([1]; read-out: IC50): 1.3 nM
1.5 to 15 nM | Cn1cc(-c2cccc(Nc3cc(N[C@@H]4CCCC[C@@H]4N)ccc3C(N)=O)n2)cn1 (relative stereo) [Example 1.10, rel-4-{[(1R,2S)-2-aminocyclohexyl]amino}-2-{[6-(1-methyl-1H-pyrazol-4-yl)pyridin-2-yl]amino}benzamide] | IC50 ([1]; read-out: IC50): 2 nM
< 1.5 nM | NC(=O)c1ccc(N[C@@H]2CCCC[C@@H]2N)cc1Nc1cccc(-c2cccc(F)c2)n1 (relative stereo) [Example 1.11, rel-4-{[(1R,2S)-2-aminocyclohexyl]amino}-2-{[6-(3-fluorophenyl)pyridin-2-yl]amino}benzamide] | –
< 1.5 nM | COc1ccccc1-c1cccc(Nc2cc(N[C@@H]3CCCC[C@@H]3N)ccc2C(N)=O)n1 (relative stereo) [Example 1.12, rel-4-{[(1R,2S)-2-aminocyclohexyl]amino}-2-{[6-(2-methoxyphenyl)pyridin-2-yl]amino}benzamide] | –
< 1.5 nM | COc1ccc(-c2cccc(Nc3cc(N[C@@H]4CCCC[C@@H]4N)ccc3C(N)=O)n2)cc1 (relative stereo) [Example 1.13, rel-4-{[(1R,2S)-2-aminocyclohexyl]amino}-2-{[6-(4-methoxyphenyl)pyridin-2-yl]amino}benzamide] | –
1.5 to 15 nM | NC(=O)c1ccc(N[C@@H]2CCCC[C@@H]2N)cc1Nc1cccc(-c2ccc(F)cc2)n1 (relative stereo) [Example 1.14, rel-4-{[(1R,2S)-2-aminocyclohexyl]amino}-2-{[6-(4-fluorophenyl)pyridin-2-yl]amino}benzamide] | –
1.5 to 15 nM | NC(=O)c1ccc(N[C@@H]2CCCC[C@@H]2N)cc1Nc1cccc(-c2ccc(F)c(F)c2)n1 (relative stereo) [Example 1.16, rel-4-{[(1R,2S)-2-aminocyclohexyl]amino}-2-{[6-(3,4-difluorophenyl)pyridin-2-yl]amino}benzamide] | IC50 ([1]; read-out: IC50): 1.6 nM
15 to 50 nM | Cc1cccc(Nc2cc(N[C@@H]3CCCC[C@@H]3N)ccc2C(N)=O)n1 (relative stereo) [Example 2, rel-4-{[(1R,2S)-2-aminocyclohexyl]amino}-2-[(6-methylpyridin-2-yl)amino]benzamide] | –
